According to patent US20050287225A1, “Metal cluster nano-compounds for treating tumor diseases” (priority 2002, published 2005):

Legend:
[1] = tested on: MOR/CPR lung cancer cells (cisplatin-resistant); assay: In-vitro cell toxicity, MTT colorimetry assay (Example 2); assay type: cell-based, human; conditions: comparison value, incubation not stated
Protocol: (§1) The in-vitro cytotoxicity properties of the gold-55 particles (Au55) prepared in example 1. C) were carried out on HeLa cancer cells and on MOR/P and MOR/CPR lung cancer cells. MOR/P cells are sensitive to cisplatin, while MOR/CPR cells are resistant to cisplatin.
(§2) The HeLa cells were grown on a DMEM medium at 37° C. in a 5% CO2 atmosphere. The medium had been supplemented with 10% strength FCS serum and antibiotics. Daughter cultures were generated twice weekly. The MOR/P and MOR/CPR cells were grown on an RPMI 1640 medium at 37° C. in a 5% CO2 atmosphere. Said medium had likewise been supplemented with 10% strength FCS serum and antibiotics. Here too, daughter cultures were generated twice weekly.
(§3) The in-vitro cytotoxicity of the Au55 particles was determined in the following manner using 96-well microtiter plates and an MTT colorimetry assay (CellTiter 96® Aqueous One Solution Cell Proliferation Assay, Promega):
(§4) Cultures of each cell line were applied at a concentration of 1—10^5 cells/ml to the microtiter plates and grown in the above-described media at 37° C. in a 5% CO2 atmosphere for 72 hours. […]
(§5) Absorption at 490 nm was measured for each well of each microtiter plate by using a 96-well microtiter plate reader. The absorption measured at 490 nm was plotted as a function of the Au55 particle concentration and the IC50 value was determined.

[2] = tested on: MOR/P lung cancer cells (cisplatin-sensitive); assay: as above; assay type: cell-based, human; conditions: comparison value, incubation not stated
Protocol: as §1, §2, §3, §4, §5

MC3 normal bone cells = assay: In-vitro cytotoxicity MTT assay (Example 4); assay type: cell-based; conditions: 72 h, read-out: IC50 cisplatin 72 h
Protocol: (§6) The in-vitro cytotoxicity was studied by means of the MTT assay (Promega), a colorimetric method in which a tetrazolium-based compound is reduced by living cells to give formazan. The amount of formazan formed is directly proportional to the number of living cells in the culture. Each cell line was incubated in microliter dishes for 48 hours before adding the medicaments. Cisplatin or Au55 was added, followed by an incubation for 72 or 24 hours. Subsequently, the MTT assays were carried out following Promega's information.
(§7) Table 2 below depicts the inhibitory concentrations of cisplatin and [Au55] incubations with various cell lines over 72 and 24 hours, respectively. The IC50 data were calculated from the graphs obtained from the in vitro cytotoxicity assays MTT. Each experiment was repeated three times independently from one another by way of determination in triplicate.

[3] = tested on: MOR/CPR lung cancer cells, cisplatin-resistant; assay: In-vitro cytotoxicity MTT assay (Example 4); assay type: cell-based, human
Protocol: as §6
Diagram 4 relates to in-vitro cytotoxicity assays on cisplatin-resistant MOR/CPR lung tumor cells, incubated with different concentrations of Au55(Ph2PC6H4SO3H)12Cl6 [Au55] for 24 hours. Each point represents 3 experiments carried out independently of one another and repeated in each case three times.
Diagramm 5 relates to in-vitro cytotoxicity assays on cisplatin-resistant MOR/CPR lung tumor cells incubated with different concentrations of free ligand, Ph2PC6H4SO3H, for 24 hours. Each point represents 3 independent experiments repeated in each case in triplicate.
Table 2 below depicts the inhibitory concentrations of cisplatin and [Au55] incubations with various cell lines over 72 and 24 hours, respectively. The IC50 data were calculated from the graphs obtained from the in vitro cytotoxicity assays MTT. […]

[4] = In-vitro cytotoxicity MTT assay (Example 4); assay type: cell-based, human; conditions: Hek, 72 h; read-out: IC50 cisplatin 72 h
Protocol: as §6, §7

BLM metastatic melanoma = assay: In-vitro cytotoxicity MTT assay (Example 4); assay type: cell-based, human; conditions: 72 h, read-out: IC50 cisplatin 72 h
Protocol: as §6, §7

[5] = tested on: HeLa cervical cancer cells; assay: In-vitro cytotoxicity MTT assay (Example 4); assay type: cell-based, human; conditions: 72 h, read-out: IC50 cisplatin 72 h
Protocol: as §6, §7

[6] = tested on: MOR/P lung cancer cells, cisplatin-sensitive; assay: In-vitro cytotoxicity MTT assay (Example 4); assay type: cell-based, human; conditions: 72 h
Protocol: as §6, §7

MV3 metastatic melanoma = assay: In-vitro cytotoxicity MTT assay (Example 4); assay type: cell-based, human; conditions: 72 h, read-out: IC50 cisplatin 72 h
Protocol: as §6, §7

U205 osteosarcoma = assay: In-vitro cytotoxicity MTT assay (Example 4); assay type: cell-based, human; conditions: 72 h, read-out: IC50 cisplatin 72 h
Protocol: as §6, §7

Row | Structure (SMILES) | IC50 [1] [µM] | IC50 [2] [µM] | IC50 (MC3 normal bone cells) [µM] | IC50 ([3]; 72 h) [µM] | IC50 [4] [µM] | IC50 (BLM metastatic melanoma) [µM] | IC50 [5] [µM] | IC50 [6] [µM] | IC50 (MV3 metastatic melanoma) [µM] | IC50 (U205 osteosarcoma) [µM] | Influence of the ligand molecules themselves on the life span of the cells ([3]; different concentrations of free ligand, 24 hours)
1 | N.N.[Cl][Pt][Cl] [cisplatin, cis-diaminodichloroplatinum(II)] | 7.1 ± 1.2 | 3.3 ± 0.3 | 26.1 ± 1.27 | 7.1 ± 1.2 | 20.1 ± 6 | 54.7 ± 7.6 | 7.93 ± 0.95 | 3.3 ± 0.3 | > 50 | 11.2 ± 2.02 | –
2 | O=S(=O)(O)c1cccc(P(c2ccccc2)c2ccccc2)c1 [ligand molecules, Ph2PC6H4SO3H] | – | – | – | – | – | – | – | – | – | – | cannot be detected
